# From ChEMBL document CHEMBL1681664, “Specific biotinylation of IMP dehydrogenase” (Bioorg Med Chem Lett, 2011)
# The source made the active and inactive calls. The rule behind the calls is not given here.
# Tests used:
# Escherichia coli [1] = assay: Ratio of Kinact to Ki for Escherichia coli IMPDH at 25 degC
# [2] = target: Inosine-5'-monophosphate dehydrogenase 2 (Homo sapiens) (UniProt P12268); assay: Ratio of Kinact to Ki for human IMPDH2 at 25 degC
# [3] = target: Inosine-5'-monophosphate dehydrogenase 2 (Homo sapiens) (UniProt P12268); assay: Inhibition of human IMPDH2 at 200 uM by SDS-PAGE in presence of 6 mM dithiothreitol
# [4] = target: Inosine-5'-monophosphate dehydrogenase 2 (Homo sapiens) (UniProt P12268); assay: Inhibition of human IMPDH2 at 100 to 500 uM at pH 8
# [5] = target: Inosine-5'-monophosphate dehydrogenase 2 (Homo sapiens) (UniProt P12268); assay: Ratio of Kinact to Ki for human IMPDH2 at 37 degC
# Escherichia coli [6] = assay: Inhibition of recombinant Escherichia coli IMPDH by SDS-PAGE
# Escherichia coli [7] = assay: Inhibition of recombinant Escherichia coli IMPDH with active site Cys replaced with Ala mutant by SDS-PAGE
# [8] = target: Inosine-5'-monophosphate dehydrogenase 2 (Homo sapiens) (UniProt P12268); assay: Inhibition of human IMPDH2 at 200 uM by SDS-PAGE
# Escherichia coli [9] = assay: Inhibition of IMPDH in wild type Escherichia coli MG1655 cell lysate by SDS-PAGE
# Escherichia coli [10] = assay: Inhibition of GMPR in wild type Escherichia coli MG1655 cell lysate by SDS-PAGE
# Chain of Inosine-5'-monophosphate dehydrogenase 2 (Homo sapiens) (P12268 2-514 limits assumed): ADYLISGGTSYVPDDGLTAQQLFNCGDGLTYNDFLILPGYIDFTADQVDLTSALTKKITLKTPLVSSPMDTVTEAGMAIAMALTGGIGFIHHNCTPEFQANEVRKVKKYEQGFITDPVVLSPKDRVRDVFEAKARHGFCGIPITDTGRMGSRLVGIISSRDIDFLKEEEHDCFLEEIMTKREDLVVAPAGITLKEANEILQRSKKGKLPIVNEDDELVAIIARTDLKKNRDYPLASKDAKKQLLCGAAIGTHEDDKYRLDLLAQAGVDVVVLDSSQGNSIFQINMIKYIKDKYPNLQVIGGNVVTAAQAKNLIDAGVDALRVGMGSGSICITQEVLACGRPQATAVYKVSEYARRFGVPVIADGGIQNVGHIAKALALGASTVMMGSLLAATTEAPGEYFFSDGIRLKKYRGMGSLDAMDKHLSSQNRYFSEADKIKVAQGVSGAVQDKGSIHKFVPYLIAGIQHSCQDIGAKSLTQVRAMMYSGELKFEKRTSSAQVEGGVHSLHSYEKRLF
Ratio (Escherichia coli [1]) [M⁻¹ s⁻¹],Ratio [2] [M⁻¹ s⁻¹],inhibition [3],inhibition [4],Ratio [5] [M⁻¹ s⁻¹],inhibition (Escherichia coli [6]),inhibition (Escherichia coli [7]),inhibition [8],inhibition (Escherichia coli [9]),inhibition (Escherichia coli [10]),Structure (SMILES)
120,0.9,inactive,–,–,–,–,–,–,–,O=P(O)(O)OC[C@H]1O[C@@H](n2cnc3c(Cl)ncnc32)[C@H](O)[C@@H]1O
130,–,–,Active,1.4,Active,inactive,Active,Active,Active,O=C(CCCC[C@@H]1SC[C@@H]2NC(=O)N[C@@H]21)NCCCO[C@@H]1[C@H](O)[C@@H](COP(=O)(O)O)O[C@H]1n1cnc2c(Cl)ncnc21
